Reference: patent US8129371B2, “Thienopyrimidine and pyrazolopyrimidine compounds and their use as mTOR kinase and PI3 kinase inhibitors” (Wyeth LLC, priority 2007, dated 2012)
Read-outs that look alike come from different tables or passages of the source.

How the values were obtained:
Human mTOR (FLAG-TOR) = molecular target: T1, Human mTOR (FLAG-TOR) (Homo sapiens, UniProt P42345); test: Human mTOR kinase assay with purified enzyme, DELFIA format; format: biochemical
T1 construct: FLAG
Method in brief: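 DELFIA readout: Eu-anti-P(T389)-S6K antibody (40 ng/mL, 1 h) on captured His6-S6K from the stopped reaction. Kinase step used purified FLAG-tagged human mTOR with test compound in HEPES (pH 7.4)/MnCl2/DTT buffer, 2 h at room temperature (linear 1–6 h), terminated by EDTA/EGTA.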

breast line MDA468 = test: In vitro cell culture growth assay (MTS), MDA468; format: cell-based; conditions: Homo sapiens, 72 h, MDA468 cells, three days after drug treatment
Method in brief: (§1)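 Cells were plated and, one day later, treated with inhibitors. Three days after treatment, viable cell density was measured by MTS dye conversion, read as absorbance at 490 nm. Effects are expressed as percent of control growth versus vehicle-treated cells on the same plate.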

prostate line LNCap = test: In vitro cell culture growth assay (MTS), LNCap; format: cell-based; conditions: Homo sapiens, LNCaP, 72 h, LNCap cells, three days after drug treatment
Method in brief: as §1

PI3K [1] = molecular target: T2, PI3K (Homo sapiens, UniProt P42336); test: Fluorescence polarization assay for PI3K; format: biochemical; conditions: read-out: PI3 Kinase α IC50
T2 construct: PI3 Kinase α IC50; other: PI3 Kinase α; other: PI3 Kinase α isoform, fluorescence polarization
T2 sequence (P42336 whole entry, canonical isoform): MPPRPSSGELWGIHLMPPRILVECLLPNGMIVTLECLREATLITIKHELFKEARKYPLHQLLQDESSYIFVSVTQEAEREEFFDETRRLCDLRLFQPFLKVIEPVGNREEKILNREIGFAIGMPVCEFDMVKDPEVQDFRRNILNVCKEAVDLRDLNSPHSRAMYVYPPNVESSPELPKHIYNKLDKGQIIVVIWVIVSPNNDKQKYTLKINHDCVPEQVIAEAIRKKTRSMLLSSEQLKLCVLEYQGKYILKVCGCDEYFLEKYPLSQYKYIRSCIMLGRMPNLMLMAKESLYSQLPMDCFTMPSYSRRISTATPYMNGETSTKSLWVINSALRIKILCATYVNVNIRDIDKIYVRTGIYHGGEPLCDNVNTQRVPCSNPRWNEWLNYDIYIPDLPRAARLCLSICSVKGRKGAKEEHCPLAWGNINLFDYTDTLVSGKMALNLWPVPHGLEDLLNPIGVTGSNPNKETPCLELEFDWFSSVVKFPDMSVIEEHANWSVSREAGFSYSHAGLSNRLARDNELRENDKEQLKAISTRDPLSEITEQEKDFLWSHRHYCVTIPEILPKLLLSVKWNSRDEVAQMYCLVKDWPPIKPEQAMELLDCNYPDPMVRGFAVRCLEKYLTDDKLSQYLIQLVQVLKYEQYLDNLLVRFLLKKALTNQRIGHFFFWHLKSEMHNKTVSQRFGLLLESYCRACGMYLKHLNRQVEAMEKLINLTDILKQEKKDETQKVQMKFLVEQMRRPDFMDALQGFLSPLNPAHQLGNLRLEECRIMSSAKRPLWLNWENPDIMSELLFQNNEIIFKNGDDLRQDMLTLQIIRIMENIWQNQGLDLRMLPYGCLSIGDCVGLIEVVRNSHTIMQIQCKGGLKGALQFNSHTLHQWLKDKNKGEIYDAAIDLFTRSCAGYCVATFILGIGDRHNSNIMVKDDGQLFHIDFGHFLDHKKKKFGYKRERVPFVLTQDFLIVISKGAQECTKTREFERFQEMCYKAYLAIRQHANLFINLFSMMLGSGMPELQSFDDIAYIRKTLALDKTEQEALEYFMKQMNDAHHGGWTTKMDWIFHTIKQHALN
Method in brief: (§2)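 Fluorescence-polarization competition readout: after 30–60 min of PIP2/ATP turnover in 1% DMSO, a stop mix with GST-GRP (70 nM) and red probe (10 nM) was added.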

PI3K [2] = molecular target: T3, PI3K (Homo sapiens, UniProt P48736); test: Fluorescence polarization assay for PI3K; format: biochemical; conditions: read-out: PI3 Kinase γ IC50
T3 construct: PI3 Kinase γ IC50; other: PI3 Kinase γ; other: PI3 Kinase γ isoform, fluorescence polarization
T3 sequence (P48736 whole entry, canonical isoform): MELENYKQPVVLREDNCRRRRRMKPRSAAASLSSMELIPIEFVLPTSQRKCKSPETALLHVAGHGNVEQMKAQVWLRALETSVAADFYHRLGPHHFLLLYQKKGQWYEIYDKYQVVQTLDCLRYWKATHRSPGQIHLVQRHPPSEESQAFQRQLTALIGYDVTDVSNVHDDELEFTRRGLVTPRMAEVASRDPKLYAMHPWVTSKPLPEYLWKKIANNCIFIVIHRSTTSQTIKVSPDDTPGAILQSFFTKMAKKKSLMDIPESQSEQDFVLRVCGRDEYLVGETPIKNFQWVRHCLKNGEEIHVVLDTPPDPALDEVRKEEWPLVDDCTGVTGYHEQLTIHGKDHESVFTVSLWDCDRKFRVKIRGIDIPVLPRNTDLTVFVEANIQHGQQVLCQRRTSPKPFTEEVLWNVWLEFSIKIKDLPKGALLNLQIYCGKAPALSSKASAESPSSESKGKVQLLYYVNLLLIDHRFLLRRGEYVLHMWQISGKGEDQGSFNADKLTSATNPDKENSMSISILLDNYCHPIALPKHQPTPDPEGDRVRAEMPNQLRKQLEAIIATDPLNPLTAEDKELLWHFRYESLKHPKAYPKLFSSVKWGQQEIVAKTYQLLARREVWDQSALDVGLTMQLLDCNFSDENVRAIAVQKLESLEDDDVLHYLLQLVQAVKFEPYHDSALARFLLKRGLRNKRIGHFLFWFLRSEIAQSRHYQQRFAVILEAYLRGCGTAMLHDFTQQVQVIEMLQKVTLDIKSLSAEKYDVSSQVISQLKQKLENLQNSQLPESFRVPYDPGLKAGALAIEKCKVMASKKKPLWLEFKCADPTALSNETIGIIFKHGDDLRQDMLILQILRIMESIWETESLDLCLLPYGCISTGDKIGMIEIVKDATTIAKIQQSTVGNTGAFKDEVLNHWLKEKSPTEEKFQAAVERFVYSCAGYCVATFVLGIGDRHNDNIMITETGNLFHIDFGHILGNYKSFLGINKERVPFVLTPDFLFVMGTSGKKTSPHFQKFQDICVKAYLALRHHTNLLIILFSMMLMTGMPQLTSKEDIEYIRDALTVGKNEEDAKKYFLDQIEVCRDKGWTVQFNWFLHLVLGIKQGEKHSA
Method in brief: as §2

[3] = purified human mTOR enzyme, DELFIA format
[4] = PI3 Kinase α isoform, fluorescence polarization
[5] = PI3 Kinase γ isoform, fluorescence polarization

IC50 (Human mTOR (FLAG-TOR); [3]) [nM]	IC50 (prostate line LNCap) [nM]	IC50 (PI3K [1]; [4]) [nM]	IC50 (PI3K [2]; [5]) [nM]	IC50 (Human mTOR (FLAG-TOR)) [nM]	IC50 (PI3K [1]; PI3 Kinase α) [nM]	IC50 (PI3K [2]; PI3 Kinase γ) [nM]	SMILES	IC50 (breast line MDA468) [nM]
39.5	1200	582	11000	–	–	–	CNC(=O)Nc1ccc(-c2nc(N3CC4COC(C3)O4)c3cnn(C)c3n2)cc1 (centres unmarked) [Example 392, 1-{4-[4-(6,8-dioxa-3-azabicyclo[3.2.1]oct-3-yl)-1-methyl-1H-pyrazolo[3,4-d]pyrimidin-6-yl]phenyl}-3-methylurea]	4800
–	4	–	–	0.255	124	3320	N#CCCn1ncc2c(N3CC4CCC(C3)O4)nc(-c3ccc(NC(=O)Nc4cccnc4)cc3)nc21 [Example 216, 1-{4-[1-(2-cyanoethyl)-4-(8-oxa-3-azabicyclo[3.2.1]oct-3-yl)-1H-pyrazolo[3,4-d]pyrimidin-6-yl]phenyl}-3-pyridin-3-ylurea]	55
8.9	210	596	4960	–	–	–	CCn1nc(-c2cccnc2)c2c(N3CC4CCC(C3)O4)nc(-c3ccc(NC(=O)NC)cc3)nc21 [Example 349, 1-{4-[1-ethyl-4-(8-oxa-3-azabicyclo[3.2.1]oct-3-yl)-3-pyridin-3-yl-1H-pyrazolo[3,4-d]pyrimidin-6-yl]phenyl}-3-methylurea]	800
–	1	–	–	1.07	104	1140	CN1CCN(c2ccc(NC(=O)Nc3ccc(-c4nc(N5CC6CCC(C5)O6)c5cnn(CCO)c5n4)cc3)cc2)CC1 [Example 203, 1-{4-[1-(2-hydroxyethyl)-4-(8-oxa-3-azabicyclo[3.2.1]oct-3-yl)-1H-pyrazolo[3,4-d]pyrimidin-6-yl]phenyl}-3-[4-(4-methylpiperazin-1-yl)phenyl]urea]	2
125	2350	5770	> 10000	–	–	–	COCC(COC)n1ncc2c(N3CC4CCC(C3)O4)nc(-c3ccc(NC(=O)OC)cc3)nc21 [Example 328, methyl (4-{1-[2-methoxy-1-(methoxymethyl)ethyl]-4-(8-oxa-3-azabicyclo[3.2.1]oct-3-yl)-1H-pyrazolo[3,4-d]pyrimidin-6-yl}phenyl)carbamate]	9200
–	< 1	–	–	0.175	102	757	CCn1ncc2c(N3CC4CCC(C3)O4)nc(-c3ccc(NC(=O)Nc4ccc(C(=O)NN5CCCC5)cc4)cc3)nc21 [Example 290, 4-[({4-[1-ethyl-4-(8-oxa-3-azabicyclo[3.2.1]oct-3-yl)-1H-pyrazolo[3,4-d]pyrimidin-6-yl]phenyl}carbamoyl)amino]-N-pyrrolidin-1-ylbenzamide]	4
9.95	1000	4030	> 10000	–	–	–	CNC(=O)Nc1ccc(-c2nc(N3CC4CCC(C3)O4)c3cnn(C4COCOC4)c3n2)cc1 [Example 385, 1-{4-[1-(1,3-dioxan-5-yl)-4-(8-oxa-3-azabicyclo[3.2.1]oct-3-yl)-1H-pyrazolo[3,4-d]pyrimidin-6-yl]phenyl}-3-methylurea]	4700
–	3	–	–	0.625	187	1060	CN1CCN(c2ccc(NC(=O)Nc3ccc(-c4nc(N5CC6CCC(C5)O6)c5cnn(C)c5n4)cc3)cn2)CC1 [Example 235, 1-{4-[1-methyl-4-(8-oxa-3-azabicyclo[3.2.1]oct-3-yl)-1H-pyrazolo[3,4-d]pyrimidin-6-yl]phenyl}-3-[6-(4-methylpiperazin-1-yl)pyridin-3-yl]urea]	68
–	< 1	–	–	0.18	175	3670	CCn1ncc2c(N3CC4CCC(C3)O4)nc(-c3ccc(NC(=O)Nc4ccc(N5CCOCC5)cc4)cc3)nc21 [Example 181, 1-{4-[1-ethyl-4-(8-oxa-3-azabicyclo[3.2.1]oct-3-yl)-1H-pyrazolo[3,4-d]pyrimidin-6-yl]phenyl}-3-(4-morpholin-4-ylphenyl)urea]	< 1

More lines, now with the values behind:

SMILES	IC50 (Human mTOR (FLAG-TOR); [3]) [nM]	IC50 (prostate line LNCap) [nM]	IC50 (PI3K [1]; [4]) [nM]	IC50 (PI3K [2]; [5]) [nM]	IC50 (Human mTOR (FLAG-TOR)) [nM]	IC50 (PI3K [1]; PI3 Kinase α) [nM]	IC50 (PI3K [2]; PI3 Kinase γ) [nM]	IC50 (breast line MDA468) [nM]
O=C(Nc1ccc(-c2nc(N3C4CCC3COC4)c3cnn(CC(F)(F)F)c3n2)cc1)Nc1ccc(N2CCOCC2)nc1 [Example 274, 1-(6-morpholin-4-ylpyridin-3-yl)-3-{4-[4-(3-oxa-8-azabicyclo[3.2.1]oct-8-yl)-1-(2,2,2-trifluoroethyl)-1H-pyrazolo[3,4-d]pyrimidin-6-yl]phenyl}urea]	–	< 1	–	–	0.245	1210	7310	20
CNC(=O)Nc1ccc(-c2nc(N3CC4CCC(C3)O4)c3cnn(CCN(C)C)c3n2)cc1 [Example 153, 1-(4-{1-[2-(dimethylamino)ethyl]-4-(8-oxa-3-azabicyclo[3.2.1]oct-3-yl)-1H-pyrazolo[3,4-d]pyrimidin-6-yl}phenyl)-3-methylurea]	–	400	–	–	14.5	966	4240	2200
COCCOC(=O)Nc1ccc(-c2nc(N3CC4CCC(C3)O4)c3cnn(C4CCN(C(=O)OC)CC4)c3n2)cc1 [Example 113, methyl 4-[6-(4-{[(2-methoxyethoxy)carbonyl]amino}phenyl)-4-(8-oxa-3-azabicyclo[3.2.1]oct-3-yl)-1H-pyrazolo[3,4-d]pyrimidin-1-yl]piperidine-1-carboxylate]	–	2700	–	–	225	7510	> 10000	30000
CNC(=O)Nc1ccc(-c2nc(N3CC4CCC(C3)O4)c3cnn(C4CCC(O)CC4)c3n2)cc1 (centres unmarked) [Example 107, 1-(4-(4-(8-oxa-3-azabicyclo[3.2.1]octan-3-yl)-1-(4-hydroxycyclohexyl)-1H-pyrazolo[3,4-d]pyrimidin-6-yl)phenyl)-3-methylurea]	–	48	–	–	0.24	1310	5000	190
CN(C)CCOc1ccc(NC(=O)Nc2ccc(-c3nc(N4C5CCC4COC5)c4cnn(CC(F)(F)F)c4n3)cc2)cc1 [Example 275, 1-{4-[2-(dimethylamino)ethoxy]phenyl}-3-{4-[4-(3-oxa-8-azabicyclo[3.2.1]oct-8-yl)-1-(2,2,2-trifluoroethyl)-1H-pyrazolo[3,4-d]pyrimidin-6-yl]phenyl}urea]	–	< 1	–	–	0.575	275	3110	< 1
CC(C)OC(=O)N1CCC(n2ncc3c(N4CC5CCC(C4)O5)nc(-c4ccc(NC(=O)NC5CC5)cc4)nc32)CC1 [Example 70, isopropyl 4-[6-{4-[(cyclopropylcarbamoyl)amino]phenyl}-4-(8-oxa-3-azabicyclo[3.2.1]oct-3-yl)-1H-pyrazolo[3,4-d]pyrimidin-1-yl]piperidine-1-carboxylate]	–	3	–	–	0.44	924	9500	140
CNC(=O)Nc1ccc(-c2nc(N3CC4CCC(C3)O4)c3cnn(C4CCN(C(=O)OC(C)C)CC4)c3n2)cc1 [Example 66, isopropyl 4-[6-{4-[(methylcarbamoyl)amino]phenyl}-4-(8-oxa-3-azabicyclo[3.2.1]oct-3-yl)-1H-pyrazolo[3,4-d]pyrimidin-1-yl]piperidine-1-carboxylate]	–	6	–	–	0.22	2020	> 10000	84
